Data: patent US20250129070A1, “BIFUNCTIONAL ANDROGEN RECEPTOR COMPOUNDS” (priority 2023, published 2025)

Tests used:
AR / CBP ternary complex = experiment: Ternary complex formation assay (sandwich ELISA, AR capture / CBP detection) in VCaP cell lysates; type: cell-based; settings: 1.5 hours treatment, sandwich ELISA (AR capture, CBP or p300 detection)
Method in brief: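 VCaP cells (50K/well, 5% charcoal-stripped FBS, ≥3 days) treated with bifunctional compound for 1.5 h, then lysed 30 min at 4 °C. AR captured on anti-AR (AR 441) plates; bound CBP or p300 detected by rabbit mAb plus HRP secondary. QuantaRed chemifluorescence read at ex 570/em 585, immediately and at 5 and 15 min.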

VCaP cells = experiment: VCaP growth inhibition assay; type: cell-based; settings: 30 pM R1881, 9 days, CTG
Method in brief: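 VCaP cells in phenol red-free DMEM/5% CSS, pre-incubated 72 h, then stimulated with R1881 (final 30 pM) and treated with 1:5 serial dilutions (final 100 nM to 10 fM) for 9 days at 37 °C. Viability by CellTiter-Glo luminescence; IC50 from 4-parameter logistic fit of RLU vs concentration.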

Compound	EC50 (AR / CBP ternary complex)	IC50 (VCaP cells)
Cn1c(=O)n(C)c2cc(N3CCCc4cc(-c5ccc(CCC6CCN(c7ncc(C(=O)NC8C(C)(C)C(Oc9ccc(C#N)c(Cl)c9)C8(C)C)cn7)CC6)nc5)ncc43)ccc21 (stereo not drawn) [Compound 234, N-[3-(3-chloro-4-cyano-phenoxy)-2,2,4,4-tetramethyl-cyclobutyl]-2-[4-[2-[5-[1-(1,3-dimethyl-2-oxo-benzimidazol-5-yl)-3,4-dihydro-2H-1,7-naphthyridin-6-yl]-2-pyridyl]ethyl]-1-piperidyl]pyrimidine-5-carboxamide]	1 to 10 nM	> 100 nM
COc1cc(OC2C(C)(C)C(NC(=O)c3ccc(N4CCC(CCn5cc(-c6cc7cccc(-c8nn(C9CCOCC9)c9c8CN(C(C)=O)CC9)c7cn6)cn5)CC4)cc3)C2(C)C)ccc1C#N (stereo not drawn) [Compound 244, 4-[4-[2-[4-[8-(5-acetyl-1-tetrahydropyran-4-yl-6,7-dihydro-4H-pyrazolo[4,3-c]pyridin-3-yl)-3-isoquinolyl]pyrazol-1-yl]ethyl]-1-piperidyl]-N-[3-(4-cyano-3-methoxy-phenoxy)-2,2,4,4-tetramethyl-cyclobutyl]benzamide]	1 to 10 nM	0.1 to 1 nM
CC(=O)N1CCc2c(c(N3CCCc4cc(-c5cnn(C)c5)c(Cl)cc43)nn2C2CCN(CC3CCN(c4ncc(C(=O)NC5C(C)(C)C(Oc6ccc(C#N)c(Cl)c6)C5(C)C)cn4)CC3)CC2)C1 (stereo not drawn) [Compound 25, 2-[4-[[4-[5-acetyl-3-[7-chloro-6-(1-methylpyrazol-4-yl)-3,4-dihydro-2H-quinolin-1-yl]-6,7-dihydro-4H-pyrazolo[4,3-c]pyridin-1-yl]-1-piperidyl]methyl]-1-piperidyl]-N-[3-(3-chloro-4-cyano-phenoxy)-2,2,4,4-tetramethyl-cyclobutyl]pyrimidine-5-carboxamide]	1 to 10 nM	0.1 to 1 nM
CC(=O)N1CCc2c(c(N3CCCc4cc(-c5cnn(C)c5)c(C(F)F)cc43)nn2C2CCC(C3CCC4(CC3)CN(c3ncc(C(=O)NC5C(C)(C)C(Oc6ccc(C#N)c(Cl)c6)C5(C)C)cn3)C4)CC2)C1 (stereo not drawn) [Compound 379, 2-[7-[4-[5-acetyl-3-[7-(difluoromethyl)-6-(1-methylpyrazol-4-yl)-3,4-dihydro-2H-quinolin-1-yl]-6,7-dihydro-4H-pyrazolo[4,3-c]pyridin-1-yl]cyclohexyl]-2-azaspiro[3.5]nonan-2-yl]-N-[3-(3-chloro-4-cyano-phenoxy)-2,2,4,4-tetramethyl-cyclobutyl]pyrimidine-5-carboxamide]	1 to 10 nM	1 to 100 nM
CC(=O)N1CCc2c(c(N3CCCc4cc(-c5cnn(C)c5)c(C(F)F)cc43)nn2C2CCC(OC3CCN(c4ncc(C(=O)NC5C(C)(C)C(Oc6ccc(C#N)c(Cl)c6)C5(C)C)cn4)CC3)CC2)C1 (stereo not drawn) [Compound 338, 2-[4-[4-[5-acetyl-3-[7-(difluoromethyl)-6-(1-methylpyrazol-4-yl)-3,4-dihydro-2H-quinolin-1-yl]-6,7-dihydro-4H-pyrazolo[4,3-c]pyridin-1-yl]cyclohexoxy]-1-piperidyl]-N-[3-(3-chloro-4-cyano-phenoxy)-2,2,4,4-tetramethyl-cyclobutyl]pyrimidine-5-carboxamide]	< 1 nM	0.1 to 1 nM
CC(=O)N1CCc2c(c(N3CCCc4cc(-c5cnn(C)c5)c(C(F)F)cc43)nn2C2CCN(CC3C(C)CN(c4ncc(C(=O)NC5C(C)(C)C(Oc6ccc(C#N)c(Cl)c6C)C5(C)C)cn4)CC3C)CC2)C1 (stereo not drawn) [Compound 460, 2-[4-[[4-[5-acetyl-3-[7-(difluoromethyl)-6-(1-methylpyrazol-4-yl)-3,4-dihydro-2H-quinolin-1-yl]-6,7-dihydro-4H-pyrazolo[4,3-c]pyridin-1-yl]-1-piperidyl]methyl]-3,5-dimethyl-1-piperidyl]-N-[3-(3-chloro-4-cyano-2-methyl-phenoxy)-2,2,4,4-tetramethyl-cyclobutyl]pyrimidine-5-carboxamide]	< 1 nM	≤ 0.1 nM
C[C@@H]1CC(=O)Nc2cccc(-c3ccc4c(c3)c(-c3cnn(C)c3)nn4CCCOc3ncc(C(=O)NC4C(C)(C)C(Oc5ccc(C#N)c(Cl)c5)C4(C)C)cn3)c2N1 (stereo partly drawn) [Compound 49, N-[3-(3-chloro-4-cyano-phenoxy)-2,2,4,4-tetramethyl-cyclobutyl]-2-[3-[5-[(4R)-4-methyl-2-oxo-1,3,4,5-tetrahydro-1,5-benzodiazepin-6-yl]-3-(1-methylpyrazol-4-yl)indazol-1-yl]propoxy]pyrimidine-5-carboxamide]	> 100 nM	1 to 100 nM
COc1cc(OC2C(C)(C)C(NC(=O)c3ccc(N4CC5(CCC(N6CCC(n7nc(N8CCCc9cc(C#N)c(C)cc98)c8c7CCN(C(C)=O)C8)CC6)CC5)C4)cc3)C2(C)C)ccc1C#N (stereo not drawn) [Compound 455, 4-[7-[4-[5-acetyl-3-(6-cyano-7-methyl-3,4-dihydro-2H-quinolin-1-yl)-6,7-dihydro-4H-pyrazolo[4,3-c]pyridin-1-yl]-1-piperidyl]-2-azaspiro[3.5]nonan-2-yl]-N-[3-(4-cyano-3-methoxy-phenoxy)-2,2,4,4-tetramethyl-cyclobutyl]benzamide]	< 1 nM	0.1 to 1 nM
CC(=O)N1CCc2c(c(N3CCCc4cc(-c5cnn(C)c5)c(C(F)F)cc43)nn2C2CCC3(CC2)CN(C2CCN(c4ncc(C(=O)NC5C(C)(C)C(Oc6ccc(C#N)c(Cl)c6)C5(C)C)cn4)CC2)C3)C1 (stereo not drawn) [Compound 371, 2-[4-[7-[5-acetyl-3-[7-(difluoromethyl)-6-(1-methylpyrazol-4-yl)-3,4-dihydro-2H-quinolin-1-yl]-6,7-dihydro-4H-pyrazolo[4,3-c]pyridin-1-yl]-2-azaspiro[3.5]nonan-2-yl]-1-piperidyl]-N-[3-(3-chloro-4-cyano-phenoxy)-2,2,4,4-tetramethyl-cyclobutyl]pyrimidine-5-carboxamide]	< 1 nM	≤ 0.1 nM
COc1cc(OC2C(C)(C)C(NC(=O)c3ccc(N4CCN(C5CCN(c6ccc(-c7cc8c(cc7C(F)F)N(c7nn(C9CCOCC9)c9c7CN(C(C)=O)CC9)CCC8)cn6)CC5)CC4)cc3)C2(C)C)ccc1C#N (stereo not drawn) [Compound 325, 4-[4-[1-[5-[1-(5-acetyl-1-tetrahydropyran-4-yl-6,7-dihydro-4H-pyrazolo[4,3-c]pyridin-3-yl)-7-(difluoromethyl)-3,4-dihydro-2H-quinolin-6-yl]-2-pyridyl]-4-piperidyl]piperazin-1-yl]-N-[3-(4-cyano-3-methoxy-phenoxy)-2,2,4,4-tetramethyl-cyclobutyl]benzamide]	< 1 nM	0.1 to 1 nM

Further lines, results first:

EC50 (AR / CBP ternary complex)	IC50 (VCaP cells)	Compound
< 1 nM	0.1 to 1 nM	CC(=O)N1CCc2c(c(-c3cccc4cc(-c5cnn(CC6CC7(C6)CN(c6ncc(C(=O)NC8C(C)(C)C(Oc9ccc(C#N)c(Cl)c9)C8(C)C)cn6)C7)c5)ncc34)nn2C)C1 (stereo not drawn) [Compound 224, 2-[6-[[4-[8-(5-acetyl-1-methyl-6,7-dihydro-4H-pyrazolo[4,3-c]pyridin-3-yl)-3-isoquinolyl]pyrazol-1-yl]methyl]-2-azaspiro[3.3]heptan-2-yl]-N-[3-(3-chloro-4-cyano-phenoxy)-2,2,4,4-tetramethyl-cyclobutyl]pyrimidine-5-carboxamide]
< 1 nM	0.1 to 1 nM	COc1cc(OC2C(C)(C)C(NC(=O)c3ccc(N4CCC(N5CCC6(CC5)CC(n5nc(N7CCCc8cc(-c9cnn(C)c9)c(C(F)F)cc87)c7c5CCN(C(C)=O)C7)C6)CC4)cc3)C2(C)C)ccc1C#N (stereo not drawn) [Compound 374, 4-[4-[2-[5-acetyl-3-[7-(difluoromethyl)-6-(1-methylpyrazol-4-yl)-3,4-dihydro-2H-quinolin-1-yl]-6,7-dihydro-4H-pyrazolo[4,3-c]pyridin-1-yl]-7-azaspiro[3.5]nonan-7-yl]-1-piperidyl]-N-[3-(4-cyano-3-methoxy-phenoxy)-2,2,4,4-tetramethyl-cyclobutyl]benzamide]
< 1 nM	0.1 to 1 nM	CC(=O)N1CCc2c(c(N3CCCc4cc(-c5cnn(C)c5)c(C)cc43)nn2C2CCN(C3CCC4(CC3)CN(c3ncc(C(=O)NC5C(C)(C)C(Oc6ccc(C#N)c(Cl)c6C)C5(C)C)cn3)C4)CC2)C1 (stereo not drawn) [Compound 473, 2-[7-[4-[5-acetyl-3-[7-methyl-6-(1-methylpyrazol-4-yl)-3,4-dihydro-2H-quinolin-1-yl]-6,7-dihydro-4H-pyrazolo[4,3-c]pyridin-1-yl]-1-piperidyl]-2-azaspiro[3.5]nonan-2-yl]-N-[3-(3-chloro-4-cyano-2-methyl-phenoxy)-2,2,4,4-tetramethyl-cyclobutyl]pyrimidine-5-carboxamide]
< 1 nM	0.1 to 1 nM	CC(=O)N1CCc2c(c(-c3cccc4cc(-c5cnn(CC6CCN(c7ncc(C(=O)NC8C(C)(C)C(Oc9ccc(C#N)c(Cl)c9)C8(C)C)cn7)CC6)c5)ncc34)nn2C)C1 (stereo not drawn) [Compound 215, 2-[4-[[4-[8-(5-acetyl-1-methyl-6,7-dihydro-4H-pyrazolo[4,3-c]pyridin-3-yl)-3-isoquinolyl]pyrazol-1-yl]methyl]-1-piperidyl]-N-[3-(3-chloro-4-cyano-phenoxy)-2,2,4,4-tetramethyl-cyclobutyl]pyrimidine-5-carboxamide]
< 1 nM	0.1 to 1 nM	CC(=O)N1CCc2c(c(Nc3ccc(-c4cnn(C)c4)cc3F)nn2C2CCN(C(=O)CC3CCN(c4ncc(C(=O)NC5C(C)(C)C(Oc6ccc(C#N)c(Cl)c6)C5(C)C)cn4)CC3)CC2)C1 (stereo not drawn) [Compound 178, 2-[4-[2-[4-[5-acetyl-3-[2-fluoro-4-(1-methylpyrazol-4-yl)anilino]-6,7-dihydro-4H-pyrazolo[4,3-c]pyridin-1-yl]-1-piperidyl]-2-oxo-ethyl]-1-piperidyl]-N-[3-(3-chloro-4-cyano-phenoxy)-2,2,4,4-tetramethyl-cyclobutyl]pyrimidine-5-carboxamide]
